Target: GLP-1R (Homo sapiens, UniProt P43220)
Test: GLP-1R agonist cAMP stimulation assay (HTRF cAMP)
Type: cell-based
Conditions: HEK293 cell line expressing GLP-1 target; HTRF cAMP agonist mode, 30 min at RT
Outline: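 GLP-1R-expressing cells were stimulated with 10-point, 3-fold compound dilutions for 30 min at RT; HTRF cAMP detection reagents were then added for 60 min and the 665/615 ratio read. Ratios were converted to cAMP via a standard curve and % activity scaled between DMSO and top-concentration GLP-1(7-37) reference wells.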

Sequence of GLP-1R (P43220 24-463): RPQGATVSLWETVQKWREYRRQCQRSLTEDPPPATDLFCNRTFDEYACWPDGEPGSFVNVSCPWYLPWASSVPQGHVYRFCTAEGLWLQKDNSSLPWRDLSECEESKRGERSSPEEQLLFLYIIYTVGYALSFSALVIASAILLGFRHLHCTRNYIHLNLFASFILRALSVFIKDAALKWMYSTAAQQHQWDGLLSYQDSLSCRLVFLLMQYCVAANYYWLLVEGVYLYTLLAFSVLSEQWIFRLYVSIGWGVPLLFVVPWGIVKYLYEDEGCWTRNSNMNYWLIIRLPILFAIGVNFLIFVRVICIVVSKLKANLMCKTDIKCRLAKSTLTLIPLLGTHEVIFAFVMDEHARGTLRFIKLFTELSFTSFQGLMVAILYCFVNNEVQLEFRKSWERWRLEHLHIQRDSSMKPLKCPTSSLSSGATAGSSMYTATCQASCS

Row | SMILES | EC50 [nM]
1 | Cc1cc(C(=O)Nc2ccc3c(c2)nc(CN2CC=C(c4cccc(OCc5ccc(Cl)cc5F)n4)CC2)n3C[C@@H]2CCO2)cc2c(C3CC3)n[nH]c12 [Compound 218] | 1.63
2 | Cc1cc(C(=O)Nc2ccc3c(c2)nc(CN2CC=C(c4cccc5c4OC(C)(c4ccc(Cl)cc4F)O5)CC2)n3C[C@@H]2CCO2)cc2[nH]c(=O)[nH]c12 (stereo partly shown) [Compound 309] | 0.87
3 | Fc1cc(Cl)ccc1COc1cccc(C2=CCN(Cc3nc4cc(-n5cnc(-c6ccn[nH]6)c5)ccc4n3C[C@@H]3CCO3)CC2)n1 [Compound 396] | 146
4 | Cc1n[nH]c2c(C)cc(NC(=O)c3ccc4nc(CN5CC=C(c6cccc(OCc7ccc(Cl)cc7F)n6)CC5)n(CC5CCO5)c4c3)cc12 (stereo not shown) [Compound 264] | 4.22
5 | N#Cc1ccc(COc2cccc(C3=CCN(Cc4nc5cc(NC(=O)c6cc(F)c7c(c6)C6(CC6)C(=O)N7)ccc5n4C[C@@H]4CCO4)CC3)n2)c(F)c1 [Compound 226] | 0.12
6 | O=C(N[C@@H](Cc1ccc(O)cc1)C(=O)O)c1ccc2c(c1)nc(CN1CCC(c3cccc(OCc4ccc(Cl)cc4F)n3)CC1)n2C[C@@H]1CCO1 [Compound 51] | 134
7 | CCc1n[nH]c2ccc(NC(=O)c3ccc4c(c3)nc(CN3CC=C(c5cccc(OCc6ccc(C#N)cc6F)n5)CC3)n4C[C@@H]3CCO3)cc12 [Compound 186] | 2.12
8 | Cc1n[nH]c2cc(F)c(NC(=O)c3ccc4c(c3)nc(CN3CC=C(c5cccc(OCc6ccc(Cl)cc6F)n5)CC3)n4C[C@@H]3CCO3)cc12 [Compound 174] | 2.13
9 | O=C(NCC(=O)N1CC(F)(F)C[C@H]1C(=O)O)c1ccc2c(c1)nc(CN1CC=C(c3cccc(OCc4ccc(Cl)cc4F)n3)CC1)n2C[C@@H]1CCO1 [Compound 72] | 0.61
10 | Cc1n[nH]c2ccc(C(=O)Nc3ccc4c(c3)nc(C3CC35CCN(c3cccc(OCc6ccc(Cl)cc6F)n3)CC5)n4CC3CCO3)cc12 (stereo not shown) [Compound 246] | 0.91
11 | Cc1cc(NC(=O)c2ccc3c(c2)nc(CN2CCC(c4cccc(OCc5ccc(Cl)cc5F)n4)CC2)n3C[C@@H]2CCO2)c(C)c2c(C)n[nH]c12 [Compound 120] | 15.3
12 | Cc1n[nH]c2ccc(C(=O)Nc3ccc4c(c3)nc(CN3CC=C(c5cccc(OCc6ccc(Cl)cc6F)n5)CC3)n4C[C@@H]3CCO3)cc12 [Compound 4, (S)—N-(2-((6-((4-chloro-2-fluorobenzyl)oxy)-3′,6′-dihydro-[2,4′-bipyridin]-1′(2′H)-yl)methyl)-1-(oxetan-2-ylmethyl)-1H-benzo[d]imidazol-5-yl)-3-methyl-1H-indazole-5-carboxamide] | 0.14
13 | Cc1n[nH]c2cc(F)c(NC(=O)c3ccc4c(c3)nc(CN3CCC(c5cccc(OCc6ccc(Cl)cc6F)n5)CC3)n4C[C@@H]3CCO3)cc12 [Compound 123] | 5.49
14 | Cc1n[nH]c2ccc(C(=O)Nc3ccc4c(c3)nc(CN3CC=C(c5cccc(OCc6ccc(Cl)cc6F)n5)CC3)n4C[C@@H]3CCO3)c(F)c12 [Compound 224] | 3.29
15 | Cc1n[nH]c2c(C(F)(F)F)cc(NC(=O)c3ccc4c(c3)nc(CN3CCC(c5cccc6c5OC(C)(c5ccc(Cl)cc5F)O6)CC3)n4CC3CCO3)cc12 (stereo not shown) [Compound 331] | 1.27
16 | C[C@H](NC(=O)c1ccc2c(c1)nc(CN1CC=C(c3cccc(OCc4ccc(Cl)cc4F)n3)CC1)n2C[C@@H]1CCO1)C(=O)N1CC(F)(F)C[C@H]1C(=O)O [Compound 73] | 0.52
17 | Cc1nn(C)c2ccc(NC(=O)c3ccc4c(c3)nc(CN3CC=C(c5cccc(OCc6ccc(Cl)cc6F)n5)CC3)n4C[C@@H]3CCO3)cc12 [Compound 159] | 9.74
18 | Cc1cc(NC(=O)c2ccc3c(c2)nc(CN2CC=C(c4cccc(OCc5ccc(Cl)cc5F)n4)CC2)n3C[C@@H]2CCO2)cc2c(C3CC3)n[nH]c12 [Compound 164] | 1.68
19 | O=C(Nc1ccc2c(c1)nc(CN1CC=C(c3cccc(OCc4ccc(Cl)cc4F)n3)CC1)n2C[C@@H]1CCO1)c1ccc2[nH]nnc2c1 [Compound 241] | 0.31
20 | COCCn1c(CN2CCC(c3cccc(OCc4ccc(Cl)cc4F)n3)CC2)nc2cc(C(=O)NCc3ccccc3O)ccc21 [Compound 35] | > 10000
21 | C[C@]12C[C@@H](C(=O)O)N(C(=O)CNC(=O)c3ccc4c(c3)nc(CN3CCC(c5cccc(OCc6ccc(Cl)cc6F)n5)CC3)n4C[C@@H]3CCO3)[C@@]1(C)C2 [Compound 55] | 1.83

Second part, the compound after the results:

Row | EC50 [nM] | SMILES
22 | 0.75 | O=C(Nc1ccc2c(c1)C1(CC1)C(=O)N2)c1ccc2c(c1)nc(CN1CC=C(c3cccc(OCc4ccc(Cl)cc4F)n3)CC1)n2C[C@@H]1CCO1 [Compound 143]
23 | 9.6 | COC(=O)[C@@H]1C[C@H](O)CN1C(=O)CNC(=O)c1ccc2c(c1)nc(CN1CCC(c3cccc(OCc4ccc(C#N)cc4F)n3)CC1)n2C[C@@H]1CCO1 [Compound 47]
24 | 0.55 | N#Cc1ccc(COc2cccc(C3CCN(Cc4nc5cc(C(=O)Nc6cc(F)c7c(c6)C6(CC6)C(=O)N7)ccc5n4C[C@@H]4CCO4)CC3)n2)c(F)c1 [Compound 125]
25 | 0.97 | O=C(Nc1cc(F)c2c(c1)C1(CC1)C(=O)N2)c1ccc2nc(CN3CC=C(c4cccc(OCc5ccc(Cl)cc5F)n4)CC3)n(C[C@@H]3CCO3)c2c1 [Compound 271]
26 | > 10000 | COCCn1c(CN2CCC(c3cccc(OCc4ccc(Cl)cc4F)n3)CC2)nc2cc(C(=O)NCCc3ccc(C(F)(F)F)cc3)ccc21 [Compound 23]
27 | 2.11 | O=C(Nc1ccc2c(c1)nc(CN1CC=C(c3cccc(OCc4ccc(Cl)cc4F)n3)CC1)n2C[C@@H]1CCO1)c1ccc2[nH]nc(C(F)(F)F)c2c1 [Compound 215]
28 | 104 | O=C(NC1=Nc2nccn2C1)c1ccc2c(c1)nc(CN1CC=C(c3cccc(OCc4ccc(Cl)cc4F)n3)CC1)n2C[C@@H]1CCO1 [Compound 400]
29 | 79.7 | O=C(NCC(=O)N1CC[C@H](C(=O)O)C1)c1ccc2c(c1)nc(CN1CCC(c3cccc(OCc4ccc(Cl)cc4F)n3)CC1)n2C[C@@H]1CCO1 [Compound 54]
30 | 1.07 | Cc1n[nH]c2c(Cl)cc(NC(=O)c3ccc4c(c3)nc(CN3CC=C(c5cccc6c5OC(C)(c5ccc(Cl)cc5F)O6)C[C@@H]3C)n4CC3CCO3)cc12 (stereo partly shown) [Compound 302]
31 | 10.3 | CC(=O)c1n[nH]c2ccc(C(=O)Nc3ccc4c(c3)nc(CN3CC=C(c5cccc(OCc6ccc(Cl)cc6F)n5)CC3)n4C[C@@H]3CCO3)cc12 [Compound 395]

From patent publication US20230271949A1, “GLP-1R MODULATING COMPOUNDS” (ASCLETIS BIOSCIENCE CO., LTD., priority 2022, published 2023)
